In patent US5155103A, “Methods of using new thieno-triazole-1,4-diazepino-2-carboxylic acid amides” (Boehringer Ingelheim GmbH, priority 1985, dated 1992):

System: human thrombocytes (PAF-induced aggregation)
Test: inhibition of PAF-induced aggregation of human thrombocytes in vitro
Assay type: cell-based
Conditions: Homo sapiens, unit inferred; read-out: IC50
Method: In order to determine the PAF-antagonistic effect of substances the PAF-induced aggregation of human thrombocytes in vitro is used. To obtain thrombocyte-rich plasma (TRP), blood is taken from an uncongested vein using a plastic syringe containing 3.8% sodium citrate solution. The ratio of sodium citrate solution to blood is 1:9. After careful mixing, the citrated blood is centrifuged for 20 minutes (150×g, 1200 rpm). The thrombocyte aggregation is measured using the method developed by Born and Cross (G. V. R. Born and M. J. Cross, J. Physiol. 168, 178 (1963)), PAF being added to the TRP with constant stirring to initiate aggregation.
The test substance is added 2 to 3 minutes before the aggregation is induced in a volume of 10 μl. The solvent used is either distilled water, ethanol and/or dimethylsulfoxide. Control mixtures are given corresponding volumes of these solvents. After the initial absorption has been recorded (2 to 3 minutes) aggregation is induced with PAF (5×10^-8 M).
To assess the effects of substances, the maximum of the first aggregation wave is used. The maximum absorption rate induced by PAF (=maximum aggregation×100%) is tested simultaneously in a parallel mixture (=control mixture in one of the channels of the 2-channel aggregometer) with each test mixture (second channel) and used as the 100% value.
The aggregation value achieved under the influence of the test substance is given as 100%.
Each test substance is investigated at concentrations of 10^-3 to 10^-8 M with a random test scope of n=4 for any inhibiting effect on the PAF-induced thrombocyte aggregation. Then a concentration-activity curve is drawn up using 3 concentrations and the IC50 is determined (concentration at 50% inhibition of aggregation).

| Compound | IC50 |
| --- | --- |
| CCN(CC)C(=O)CCc1cc2c(s1)-n1c(C)nnc1CN=C2c1ccccc1Cl [Example 5, 2-[4-(2-Chlorophenyl)-9-methyl-6H-thieno[3,2-f][1,2,4]-triazolo[4,3-a][1,4]diazepin-2-yl]-ethane-1-carboxylic acid diethylamide] | 700 nM |
| Cc1nnc2n1-c1sc(CCC(=O)N3CCOCC3)cc1C(c1ccccc1Cl)=NC2 [Example 1, 2-[4-(2-Chlorophenyl)-9-methyl-6H-thieno[3,2-f][1,2,4]-triazolo[4,3-a][1,4]diazepin-2-yl]-ethane-1-carboxylic acid morpholide] | 170 nM |

Same assay, conditions: Table B; PAF 5×10^-8 M; human thrombocyte-rich plasma; read-out: PAF-Antag. IC50

| Compound | IC50 |
| --- | --- |
| COc1nnc2n1-c1sc(CCC(=O)N3CCOCC3)cc1C(c1ccccc1Cl)=NC2 [Example 10, 2-[4(2-Chlorophenyl)-9-methoxy-6H-thieno[3,2-f][1,2,4]-triazolo-[4,3-a][1,4]-diazepin-2-yl]-ethane-1-carboxylic acid morpholide] | 200 nM |
| Cc1nnc2n1-c1sc(CCC(=O)NCCO)cc1C(c1ccccc1Cl)=NC2 [Example 23] | 750 nM |
| CCN(CC)C(=O)CCc1cc2c(s1)-n1c(nnc1C1CC1)CN=C2c1ccccc1Cl [Example 18, 2-[4-(2-Chlorophenyl)-9-cyclopropyl-6H-thieno[3,2-f][1,2,4]triazolo[4,3-a][1,4]diazepin-2-yl]-ethane-1-carboxylic acid diethylamide] | 800 nM |
| CCN(CC)C(=O)CCc1cc2c(s1)-n1c(C)nnc1CN=C2c1ccccc1Cl [Example 5, 2-[4-(2-Chlorophenyl)-9-methyl-6H-thieno[3,2-f][1,2,4]-triazolo[4,3-a][1,4]diazepin-2-yl]-ethane-1-carboxylic acid diethylamide] | 720 nM |
| Cc1nnc2n1-c1ccc(Cl)cc1C(c1ccccc1Cl)=NC2 [Triazolam, reference compound] | 1400 nM |
| O=C(CCc1cc2c(s1)-n1cnnc1CN=C2c1ccccc1Cl)N1CCOCC1 [Example 19, 2-[4-(2-chlorophenyl)-6H-thieno[3,2-f][1,2,4]-triazolo[4,3-a][1,4]-diazepin-2-yl]-ethane-1-carboxylic acid morpholide] | 8200 nM |
| Cc1nnc2n1-c1sc(CCCCC(=O)N3CCOCC3)cc1C(c1ccccc1Cl)=NC2 [Example 8] | 870 nM |
| Cc1nnc2n1-c1sc(CCC(=O)N(CCO)CCO)cc1C(c1ccccc1Cl)=NC2 [Example 21] | 2900 nM |
| Cc1nnc2n1-c1sc(CC(=O)N3CCOCC3)cc1C(c1ccccc1Cl)=NC2 [Example 6, [4-(2-Chlorophenyl)-9-methyl-6H-thieno[3,2-f][1,2,4]triazolo-[4,3-a][1,4]-diazepin-2-yl]-methane carboxylic acid morpholide] | 1300 nM |
| CCCOc1nnc2n1-c1sc(CCC(=O)N3CCOCC3)cc1C(c1ccccc1Cl)=NC2 [Example 26] | 8100 nM |
| CCc1cc2c(s1)-n1c(C)nnc1CN=C2c1ccccc1Cl [Etizolam, reference compound] | 500 nM |
| O=C(CCc1cc2c(s1)-n1c(nnc1C1CC1)CN=C2c1ccccc1Cl)N1CCOCC1 [Example 2] | 330 nM |
| Cc1nnc2n1-c1sc(C(N)=O)cc1C(c1ccccc1Cl)=NC2 [Example 4, [4-(2-Chlorophenyl)-9-methyl-6H-thieno[3,2-f][1,2,4]triazolo-[4,3-a][1,4]diazepin-2-yl]-carboxylic acid amide] | 8300 nM |
| O=C(CCc1cc2c(s1)-n1c(Br)nnc1CN=C2c1ccccc1Cl)N1CCOCC1 [Example 9] | 470 nM |
| Cc1nnc2n1-c1sc(CCC(=O)NC(C)C)cc1C(c1ccccc1Cl)=NC2 [Example 13, 2-[4-(2-Chlorophenyl)-9-methyl-6H-thieno[3,2-f][1,2,4]-triazolo[4,3-a][1,4]diazepin-2-yl]-ethane-1-carboxylic acid isopropylamide] | 1540 nM |
| O=C(CCc1cc2c(s1)-n1c(CCl)nnc1CN=C2c1ccccc1Cl)N1CCOCC1 [Example 24] | 1400 nM |
| Cc1nnc2n1-c1sc(CCC(=O)N3CCOCC3)cc1C(c1ccccc1)=NC2 [Example 22, 2-[4-Phenyl-9-methyl-6H-thieno[3,2-f][1,2,4]triazolo-[4,3-a][1,4]diazepin-2-yl]-ethane-1-carboxylic acid morpholide] | 540 nM |
| Cc1nnc2n1-c1sc(CCC(=O)N3CCN(C)CC3)cc1C(c1ccccc1Cl)=NC2 [Example 17, 2-[4-(2-Chlorophenyl)-9-methyl-6H-thieno[3,2-f][1,2,4]-triazolo[4,3-a][1,4]diazepin-2-yl]-ethane-1-carboxylic acid N'-methyl-piperazide] | 900 nM |
| Cc1nnc2n1-c1sc(CCCC(=O)N3CCOCC3)cc1C(c1ccccc1Cl)=NC2 [Example 7, 3-[4-(2-Chlorophenyl)-9-methyl-6H-thieno[3,2-f][1,2,4]-triazolo-[4,3-a][1,4]-diazepin-2-yl]-propane-1-carboxylic acid morpholide] | 850 nM |
| Cc1nnc2n1-c1sc(CCC(=O)N3CCCCC3)cc1C(c1ccccc1Cl)=NC2 [Example 16, 2-[4-(2-Chlorophenyl)-9-methyl-6H-thieno[3,2-f][1,2,4]-triazolo[4,3-a][1,4]diazepin-2-yl]-ethane-1-carboxylic acid piperidide] | 1330 nM |
| Cc1nnc2n1-c1sc(CCC(=O)N3CCOCC3)cc1C(c1ccccc1Cl)=NC2 [Example 1, 2-[4-(2-Chlorophenyl)-9-methyl-6H-thieno[3,2-f][1,2,4]-triazolo[4,3-a][1,4]diazepin-2-yl]-ethane-1-carboxylic acid morpholide] | 170 nM |
| Cc1nnc2n1-c1sc(CCC(=O)N3CCCC3)cc1C(c1ccccc1Cl)=NC2 [Example 15, 2-[4-(2-Chlorophenyl)-9-methyl-6H-thieno[3,2-f][1,2,4]-triazolo[4,3-a][1,4]diazepin-2-yl]-ethane-1-carboxylic acid pyrrolidide] | 380 nM |
| CNC(=O)CCc1cc2c(s1)-n1c(C)nnc1CN=C2c1ccccc1Cl [Example 12, 2-[4-(2-Chlorophenyl)-9-methyl-6H-thieno[3,2-f][1,2,4]-triazolo[4,3-a][1,4]diazepin-2-yl]-ethane-1-carboxylic acid methylamide] | 350 nM |
| Cc1nnc2n1-c1sc(Br)cc1C(c1ccccc1Cl)=NC2 [Brotizolam, reference compound] | 500 nM |
| Cc1nnc2n1-c1sc(CCC(=O)N(C)C)cc1C(c1ccccc1Cl)=NC2 [Example 14, 2-[4-(2-Chlorophenyl)-9-methyl-6H-thieno[3,2-f][1,2,4]-triazolo[4,3-a][1,4]diazepin-2-yl]-ethane-1-carboxylic acid dimethylamide] | 2200 nM |
| Cc1nnc2n1-c1sc(C(=O)N3CCOCC3)cc1C(c1ccccc1Cl)=NC2 [Example 3, [4-(2-Chlorophenyl)-9-methyl-6H-thieno[3,2-f][1,2,4]triazolo-[4,3-a][1,4]diazepin-2-yl]-carboxylic acid morpholide] | 710 nM |
| Cc1nnc2n1-c1sc(CC(N)=O)cc1C(c1ccccc1Cl)=NC2 [Example 20] | 5300 nM |
